IC50 data for 56 compounds are collected here from patent US11261174B2, “Pyrazole O-linked carbamoyl cyclohexyl acids as LPA antagonists” (BRISTOL-MYERS SQUIBB COMPANY, priority 2017, dated 2022).

As a reminder, the IC50 is the concentration at which inhibition is half-maximal.

Each structure is given as a SMILES string.

LPA1, sequence (Q92633 whole entry): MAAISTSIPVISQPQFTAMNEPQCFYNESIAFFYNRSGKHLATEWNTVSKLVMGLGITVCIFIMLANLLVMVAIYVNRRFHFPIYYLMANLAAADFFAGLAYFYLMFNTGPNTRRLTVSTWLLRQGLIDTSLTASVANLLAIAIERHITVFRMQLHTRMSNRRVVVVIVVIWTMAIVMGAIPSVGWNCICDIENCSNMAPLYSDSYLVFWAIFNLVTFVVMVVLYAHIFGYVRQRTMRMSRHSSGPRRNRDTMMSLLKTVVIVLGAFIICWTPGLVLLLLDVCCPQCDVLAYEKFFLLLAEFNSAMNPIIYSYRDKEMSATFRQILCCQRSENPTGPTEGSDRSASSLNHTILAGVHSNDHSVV

This experiment concerns the target LPA1 (Homo sapiens, UniProt Q92633). The experiment is described as follows: LPA1 functional antagonist assay (LPA-induced calcium flux). The format is cell-based. Also noted: expressed in transfected cells; host or cells: Chinese hamster ovary (CHO) cells. The settings on record: CHO cells overexpressing human LPA1; calcium flux induced by 10 nM LPA; read-out: hLPA1 IC50. Here is the method:
The effectiveness of compounds of the present invention as LPA1 inhibitors can be determined in an LPA1 functional antagonist assay as follows:
Chinese hamster ovary cells overexpressing human LPA1 were plated overnight (15,000 cells/well) in poly-D-lysine coated 384-well microplates (Greiner bio-one, Cat #781946) in DMEM/F12 medium (Gibco, Cat #11039). Following overnight culture, cells were loaded with calcium indicator dye (AAT Bioquest Inc, Cat #34601) for 30 minutes at 37° C. The cells were then equilibrated to room temperature for 30 minutes before the assay. Test compounds solubilized in DMSO were transferred to 384 well non-binding surface plates (Corning, Cat #3575) using the Labcyte Echo acoustic dispense and diluted with assay buffer [1×HBSS with calcium/magnesium (Gibco Cat #14025-092), 20 mM HEPES (Gibco Cat #15630-080) and 0.1% fatty acid free BSA (Sigma Cat # A9205)] to a final concentration of 0.5% DMSO. Diluted compounds were added to the cells by FDSS6000 (Hamamatsu) at final concentrations ranging from 0.08 nM to 5 μM. and were then incubated for 20 min at room temperature at which time LPA (Avanti Polar Lipids Cat #857130C) was added at final concentrations of 10 nM to stimulate the cells. […] IC50 values were determined by fitting data to a 4-parameter logistic equation (GraphPad Prism, San Diego Calif.).
For `CCCCN(C)C(=O)OCc1c(-c2cnc(O[C@H]3CCC[C@H](C(=O)O)C3)c(C)n2)cnn1C` (racemic) [Example 7], the IC50 turned out to be 40 nM.

Take `Cc1nc(-c2cnn(C)c2COC(=O)N(C)Cc2ccccc2)ccc1O[C@@H]1CCC[C@@H](C(=O)O)C1` (racemic) [Example 27]: the IC50 came out at 24 nM.

For the compound `CCCC(C)(C)N(C)C(=O)OCc1c(-c2ccc(O[C@@H]3CCC[C@@H](C(=O)O)C3)c(C)n2)cnn1C` (racemic) [Example 28], the IC50 is 140 nM. Consider `CCCC(C)(C)N(C)C(=O)OCc1c(-c2ccc(O[C@@H]3CCC[C@@H](C(=O)O)C3)cn2)cnn1C` (racemic) [Example 31], for which the IC50 came out at 51 nM.

On to `CN(CCC1CC1)C(=O)OCc1c(-c2ccc(O[C@@H]3CCC[C@@H](C(=O)O)C3)cn2)cnn1C` (racemic) [Example 32], for which the IC50 came out at 54 nM. Consider `CC(C)CCN(C)C(=O)OCc1c(-c2ccc(O[C@@H]3CCC[C@@H](C(=O)O)C3)cn2)cnn1C` (racemic) [Example 34], for which the IC50 was found to be 33 nM. With `CN(CC1CC1)C(=O)OCc1c(-c2ccc(O[C@@H]3CCC[C@@H](C(=O)O)C3)cc2)cnn1C` (racemic) [Example 41], the IC50 was 1760 nM. Regarding `C[C@H](C1CC1)N(C)C(=O)OCc1c(-c2ccc(O[C@H]3CCC[C@H](C(=O)O)C3)cn2)cnn1C` [Example 1, (1S,3S)-3-((6-(5-(((((R)-1-cyclopropylethyl)(methyl)carbamoyl)oxy)methyl)-1-methyl-1H-pyrazol-4-yl)pyridin-3-yl)oxy)cyclohexane-1-carboxylic Acid], the IC50 is 67 nM. As for `CC(C1CCC1)N(C)C(=O)OCc1c(-c2ccc(O[C@H]3CCCC(C(=O)O)C3)cn2)cnn1C` (some centres unmarked) [Example 2], the IC50 worked out at 136 nM.

As to `CN(CC1CCC1)C(=O)OCc1c(-c2ccc(O[C@H]3CCC[C@H](C(=O)O)C3)cn2)cnn1C` [Example 3], the IC50 is 48 nM. Turning to `CN(CC1CC1)C(=O)OCc1c(-c2ccc(O[C@H]3CCC[C@H](C(=O)O)C3)cn2)cnn1C` [Example 4], the IC50 stood at 165 nM.

Turning to `Cc1nc(-c2cnn(C)c2COC(=O)N(C)C2CCCC2)ccc1O[C@H]1CCC[C@H](C(=O)O)C1` [Example 5], the IC50 stood at 30 nM. In the case of `Cc1nc(-c2cnn(C)c2COC(=O)N(C)[C@H](C)C2CC2)cnc1O[C@H]1CCC[C@H](C(=O)O)C1` [Example 6], the IC50 was 94 nM.

Regarding `Cc1nc(-c2cnn(C)c2COC(=O)N(C)Cc2ccccc2)cnc1O[C@H]1CCC[C@H](C(=O)O)C1` [Example 8], the IC50 turned out to be 34 nM. In the case of `Cc1nc(-c2cnn(C)c2COC(=O)N(C)C2CCCC2)cnc1O[C@H]1CCC[C@H](C(=O)O)C1` [Example 9], the IC50 was 34 nM. In the case of `CC[C@H](C)CN(C)C(=O)OCc1c(-c2ccc(O[C@H]3CCC[C@H](C(=O)O)C3)c(C)n2)cnn1C` [Example 11], the IC50 worked out at 73 nM.

Take `CCCN(C)C(=O)OCc1c(-c2ccc(O[C@H]3CCC[C@H](C(=O)O)C3)c(C)n2)cnn1C` [Example 12]: the IC50 is 54 nM. For `Cc1nc(-c2cnn(C)c2COC(=O)N(C)CC2CCCC2)ccc1O[C@H]1CCC[C@H](C(=O)O)C1` [Example 13], the IC50 amounted to 244 nM. In the case of `Cc1nc(-c2cnn(C)c2COC(=O)N(C)Cc2cccc(Cl)c2)ccc1O[C@H]1CCC[C@H](C(=O)O)C1` [Example 14], the IC50 worked out at 1120 nM. On to `Cc1nc(-c2cnn(C)c2COC(=O)N(C)Cc2ccccc2)ccc1O[C@H]1CCC[C@H](C(=O)O)C1` [Example 15], for which the IC50 worked out at 10 nM. In the case of `Cc1nc(-c2cnn(C)c2COC(=O)N(C)Cc2cccc(F)c2)ccc1O[C@H]1CCC[C@H](C(=O)O)C1` [Example 16], the IC50 is 8 nM. As to `Cc1nc(-c2cnn(C)c2COC(=O)N(C)C2(C3CC3)CC2)ccc1O[C@H]1CCC[C@H](C(=O)O)C1` [Example 17], the IC50 was 43 nM. To `CCCC1(N(C)C(=O)OCc2c(-c3ccc(O[C@H]4CCC[C@H](C(=O)O)C4)c(C)n3)cnn2C)CC1` [Example 18] belongs 55 nM; to `Cc1nc(-c2cnn(C)c2COC(=O)N(C)CCC2CC2)ccc1O[C@H]1CCC[C@H](C(=O)O)C1` [Example 19], 9 nM. For the compound `CCCCN(C)C(=O)OCc1c(-c2ccc(O[C@H]3CCC[C@H](C(=O)O)C3)c(C)n2)cnn1C` [Example 20], the IC50 came to 16 nM.

With `Cc1nc(-c2cnn(C)c2COC(=O)N(C)CC2CCC2)ccc1O[C@H]1CCC[C@H](C(=O)O)C1` [Example 21], the IC50 came to 10 nM.

Regarding `Cc1nc(-c2cnn(C)c2COC(=O)N(C)C(C2CC2)C2CC2)ccc1O[C@H]1CCC[C@H](C(=O)O)C1` [Example 23], the IC50 is 28 nM. Take `Cc1nc(-c2cnn(C)c2COC(=O)N(C)CCC(C)C)ccc1O[C@H]1CCC[C@H](C(=O)O)C1` [Example 24]: the IC50 worked out at 5 nM. As to `Cc1nc(-c2cnn(C)c2COC(=O)N(C)CC2CC2)ccc1O[C@H]1CCC[C@H](C(=O)O)C1` [Example 25], the IC50 came out at 20 nM. With `CCC(CC)N(C)C(=O)OCc1c(-c2ccc(O[C@H]3CCC[C@H](C(=O)O)C3)cn2)cnn1C` [Example 26], the IC50 was 30 nM. As to `CCCCN(C)C(=O)OCc1c(-c2ccc(O[C@H]3CCC[C@H](C(=O)O)C3)c(C)c2)cnn1C` [Example 30], the IC50 stood at 5 nM. For `CC(C)CCN(C)C(=O)OCc1c(-c2ccc(O[C@H]3CCC[C@H](C(=O)O)C3)cn2)cnn1C` [Example 33], the IC50 is 23 nM. In the case of `CCCCN(C)C(=O)OCc1c(-c2ccc(O[C@H]3CCC[C@H](C(=O)O)C3)cn2)cnn1C` [Example 35], the IC50 was 9 nM.

Turning to `CN(Cc1ccccc1)C(=O)OCc1c(-c2ccc(O[C@@H]3CCC[C@@H](C(=O)O)C3)cc2)cnn1C` [Example 36], the IC50 stood at 376 nM. Regarding `CC(C)CCN(C)C(=O)OCc1c(-c2ccc(O[C@@H]3CCC[C@@H](C(=O)O)C3)cc2)cnn1C` [Example 37], the IC50 was 2040 nM.

As to `CC(C)CCN(C)C(=O)OCc1c(-c2ccc(O[C@H]3CCC[C@H](C(=O)O)C3)cc2)cnn1C` [Example 38], the IC50 is 6 nM.

As for `CN(C(=O)OCc1c(-c2ccc(O[C@@H]3CCC[C@@H](C(=O)O)C3)cc2)cnn1C)C1CCC1` [Example 42], the IC50 was 415 nM. With `Cc1cc(-c2cnn(C)c2COC(=O)N(C)C2CCC2)ccc1O[C@H]1CCC[C@H](C(=O)O)C1` [Example 45], the IC50 turned out to be 19 nM. Take `Cc1cc(-c2cnn(C)c2COC(=O)N(C)C(C)C2CCC2)ccc1O[C@H]1CCC[C@H](C(=O)O)C1` (some centres unmarked) [Example 46]: the IC50 came out at 27 nM. For `Cc1cc(-c2cnn(C)c2COC(=O)N(C)C(C)C2CC2)ccc1O[C@H]1CCC[C@H](C(=O)O)C1` (some centres unmarked) [Example 47], the IC50 was 27 nM. For the compound `Cc1cc(-c2cnn(C)c2COC(=O)N(C)C2CCCC2)ccc1O[C@H]1CCC[C@H](C(=O)O)C1` [Example 48], the IC50 was 8 nM.

Consider `CC(C)CN(C)C(=O)OCc1c(-c2ccc(O[C@H]3CCC[C@H](C(=O)O)C3)cc2)cnn1C` [Example 49], for which the IC50 is 286 nM. On to `CN(C(=O)OCc1c(-c2ccc(O[C@H]3CCC[C@H](C(=O)O)C3)cc2)cnn1C)C1CCC1` [Example 50], for which the IC50 amounted to 70 nM. For the compound `CN(CC1CC1)C(=O)OCc1c(-c2ccc(O[C@H]3CCC[C@H](C(=O)O)C3)cc2)cnn1C` [Example 51], the 50% inhibitory concentration (IC50) turned out to be 399 nM. To `CN(CC1CCC1)C(=O)OCc1c(-c2ccc(O[C@H]3CCC[C@H](C(=O)O)C3)cc2)cnn1C` [Example 52] belongs 53 nM. In the case of `CCC(C)N(C)C(=O)OCc1c(-c2ccc(O[C@H]3CCC[C@H](C(=O)O)C3)cc2)cnn1C` (some centres unmarked) [Example 53], the IC50 turned out to be 86 nM. For the compound `CCCC(C)N(C)C(=O)OCc1c(-c2ccc(O[C@H]3CCC[C@H](C(=O)O)C3)cc2)cnn1C` (some centres unmarked) [Example 54], the IC50 stood at 87 nM. With `CC(C1CCC1)N(C)C(=O)OCc1c(-c2ccc(O[C@H]3CCC[C@H](C(=O)O)C3)cc2)cnn1C` (some centres unmarked) [Example 55], the IC50 amounted to 22 nM. With `CN(C(=O)OCc1c(-c2cnc(O[C@H]3CCC[C@H](C(=O)O)C3)cn2)cnn1C)C1CCCC1` [Example 56], the IC50 amounted to 18 nM. Take `C[C@@H](C1CC1)N(C)C(=O)OCc1c(-c2ccc(O[C@H]3CCC[C@H](C(=O)O)C3)cc2)cnn1C` [Example 57]: the 50% inhibitory concentration (IC50) is 192 nM. With `C[C@H](C1CC1)N(C)C(=O)OCc1c(-c2ccc(O[C@H]3CCC[C@H](C(=O)O)C3)cc2)cnn1C` [Example 58], the IC50 is 38 nM.

On to `CCC(C)N(C)C(=O)OCc1c(-c2ccc(O[C@H]3CCC[C@H](C(=O)O)C3)cn2)cnn1C` (some centres unmarked) [Example 59], for which the IC50 was 401 nM. For the compound `CCCCN(C)C(=O)OCc1c(-c2ccc(O[C@H]3CCC[C@H](C(=O)O)C3)c(C)c2)cnn1C` [Example 60], the IC50 amounted to 11 nM. To `CC(C1CC1)N(C)C(=O)OCc1c(-c2ccc(O[C@H]3CCC[C@H](C(=O)O)C3)cn2)cnn1C` (some centres unmarked) [Example 61] belongs 134 nM; to `CN(C(=O)OCc1c(-c2ccc(O[C@H]3CCC[C@H](C(=O)O)C3)cn2)cnn1C)C1CCCC1` [Example 62], 31 nM; to `CN(CCC1CC1)C(=O)OCc1c(-c2ccc(O[C@H]3CCC[C@H](C(=O)O)C3)cc2)cnn1C` [Example 63], 46 nM.
